Literature values, collected in patent US20260183298A1, “VIRAL PROPHYLAXIS TREATMENT METHODS AND PRE-EXPOSURE PROPHYLAXIS KITS” (priority 2022, published 2026).

Key:
[1] = in vivo
[2] = test system: EHV; settings: about 75% of the horses infected with EHV; all horses treated with valacyclovir
[3] = test system: cytochrome p450
[4] = test system: HSV-1, HSV-2, HSV-8 (Kaposi's Sarcoma Virus), Vaccinia and Cowpox viruses

SMILES	time to clear through the kidneys [1]	progression to severe neurological disease [2]	metabolism by cytochrome p450 [3]	Renal clearance (following a single 1 g dose)	Mean Cmax (in vivo)	bioavailability (overall)	antiviral activity [4]	potency relative to reference antivirals ([4]; than the antiviral drugs acyclovir, ganciclovir and cidofovir)
CC(=O)OCC(CCn1cnc2cnc(N)nc21)COC(C)=O [Famciclovir, famciclovir]	less than 24 hours	–	–	–	–	–	–	–
CC(C)[C@H](N)C(=O)OCCOCn1cnc2c(=O)[nH]c(N)nc21 [Valacyclovir, valacyclovir]	less than 24 hours	none progressed to severe neurological disease	not metabolized by cytochrome p450	255 mL/min	830 to 5650 ng/mL	54.5%	–	–
Cc1cn([C@H]2C[C@H](O)[C@]3(CO)C[C@H]23)c(=O)[nH]c1=O [N-MCT, N-methanocarbathymidine]	–	–	–	–	–	–	inhibits	equally or more potent
